Assay results from patent US20250129370A1, “METHOD FOR REDUCING HEPATIC TRIGLYCERIDES” (ADAERATA, LIMITED PARTNERSHIP, priority 2022, published 2025).

Legend:
Type in all cases: cell-based, human
PC7 = PC7 shedding of hTfR1 into the media, Huh7 cells; conditions: Huh7, 2×, 3× and 5× miR-125a-5p vector
Experimental: FIGS. 32A-B Western blot (FIG. 32A) and quantitative (FIG. 32B) analysis of human PC7 and TFR1 expression in Huh7 cells, in which miR-125-5p was overexpressed. […] X stands for vector DNA fold for miR-125-5p compared to vector expressing PC7. Because both PC7-V5 and hTfR1-V5 were V5-tagged, the WB using a mAb-V5 reflects the expression of both proteins.
In the next step, the effect of miR-125a-5p on PC7 function was determined. First, the miR-125a-5p-overexpressing vector and its related mock plasmids were co-transfected with the pIRES vector (Invitrogen, USA), containing the full length of cDNA encoding the PCSK7 mRNA with the complete 3′-UTR in Huh7 cells. […] Thereafter, the impact of miR-125a-5p on the enzymatic function of PC7 was assessed by co-transfecting Huh7 cells with the miR-125a-5p-overexpressing vector, with that coding for the full length of PCSK7, and a plasmid encoding hTfR1 (Guillemot et al., 2013; Durand et al., 2020). […]
Subsequently, proteins were isolated with an ice-cold RIPA buffer (1×), comprising 50 mM of Tris hydrochloride (pH 8), 150 mM of sodium chloride, 0.1% sodium dodecyl sulfate, 1% Nonidet P40, 0.25% sodium deoxycholate, and a cocktail of protease inhibitors (Roche, Oakville, ON, Canada). […] Subsequently, immunoreactive bands (the signal) were visualized with an enhanced chemiluminescent reaction kit (Bio-Rad, USA) and recorded via chemiluminescence. […]

hTfR1 = test: Western blot of hTfR1 protein in Huh7 cells co-transfected with miR-125a-5p vector
Text: FIGS. 31A-B. Western blot (FIG. 31A) and quantitative (FIG. 31B) analysis of the cellular expression of human TfR1 after the co-transfection of the miR-125a-5p and TfR1-overexpressing vectors in Huh7 cells. No direct effect by miR-125a-5p on TfR1 expression was observed. Here miR-125a-5p was overexpressed at different plasmid DNA ratios of PCSK7: miRNA: 1:2 (2×), 1:3 (3×), and 1:5 (5×). X stands for vector DNA fold for miR-125-5p compared to vector expressing PC7.
In the next step, the effect of miR-125a-5p on PC7 function was determined. […] Thereafter, the impact of miR-125a-5p on the enzymatic function of PC7 was assessed by co-transfecting Huh7 cells with the miR-125a-5p-overexpressing vector, with that coding for the full length of PCSK7, and a plasmid encoding hTfR1 (Guillemot et al., 2013; Durand et al., 2020). […]
Subsequently, proteins were isolated with an ice-cold RIPA buffer (1×), comprising 50 mM of Tris hydrochloride (pH 8), 150 mM of sodium chloride, 0.1% sodium dodecyl sulfate, 1% Nonidet P40, 0.25% sodium deoxycholate, and a cocktail of protease inhibitors (Roche, Oakville, ON, Canada). […] Both PC7 and TfR1 were C-terminally tagged with V5 and detected with a V5-monoclonal antibody (Invitrogen) and membranes were incubated with appropriate primary and secondary antibodies, as reported (Guillemot et al., 2013). […]

[1] = tested on: mutated form of PCSK7 3′-UTR; test: Luciferase reporter assay, miRNA target site-deleted PCSK7 3′-UTR, HEK293T cells
Text: The interactions between the miRNAs and their probable targets on PCSK7 were explored by cloning the potential target regions in psiCHECK-2™ (Promega, USA), a luciferase reporter vector. In psiCHECK-2™, hRluc, the Renilla luciferase gene, is located upstream of the target regions of interest cloned into the psiCHECK-2™ vector downstream of the Renilla gene. The region corresponding to the 3′-UTR of PCSK7 (926-nt sequences in length) that constituted the predicted miRNA response elements was PCR-amplified and cloned downstream of the Renilla luciferase gene in the psiCHECK-2™ vector (Promega, USA). For the confirmation of whether miRNA response elements (miRNA target sites) on the 3′-UTR of PCSK7 were active and had direct interactions with the miRNAs, different mutants (plasmids) were constructed via splicing by over-hang-extension (SOEing) PCR. For miR-125a-5p and miR-143-3p, each of which has two miRNA response elements on PCSK7 3′-UTR, three different mutant constructs were built. Two constructs were made by deleting a putative miRNA target site, and the third one was made by omitting both putative miRNA target sites in the 3′-UTR sequence of PCSK7. In the miR-409-3p mutant construct, a putative miRNA target site was deleted from the 3′-UTR sequence.
The HEK293T cells were co-transfected through the application of the wild-type psiCHECK-2, the wild-type PCSK7 3′-UTR, the mutant PCSK7 3′-UTR, and the miR-overexpressing vectors so that the direct interactions of the nominated miRNAs with PCSK7 3′-UTR could be investigated. In brief, 150 ng of the wild-type or mutated 3′-UTR constructs and 300 ng of the miRNA-expressing vectors were co-transfected in HEK293T-cultured 48-well plates using FuGENE™ (Invitrogen, USA). Additionally, the psiCHECK-2 and pEGFP-C1 mock vectors were transfected and utilized as controls for luciferase assay and transfection, respectively. Transfection efficiency was monitored by fluorescent microscopy (Nikon TE2000S, Japan) 36 hours following the procedure.
The PsiCHECK-2 reporter construct plasmid contained the Renilla luciferase gene upstream of PCSK7 3′-UTR and an independent firefly luciferase gene as an internal control for normalization. Forty-eight hours after HEK293T co-transfection, the luciferase reporter assay was carried out employing the Dual-Luciferase Reporter Assay System (Promega, USA) with a luminometer (Titertek-Berthold, Germany) in accordance with the manufacturer's protocol. Each sample was performed in triplicate, and the experiment was repeated at least three biological times. In short, a lysis buffer was added to each well after the removal of the media of the cell. Then, LARII Reagent was added, and after 20 minutes, the firefly luciferase activity was measured as a control. Afterward, Renilla activity was determined using Stop & Glo Reagent. The relative luciferase activity was calculated using the following formula: ΔFold Activity of Luciferase (Renilla/Firefly)=Average Renilla/Firefly from Samples A/B.
A luciferase reporter assay further confirmed that miR-125a-5p, miR-143-3p, and miR-409-3p directly targeted the 3′-UTR of the PCSK7 transcript since the negative regulatory effect was lost upon the deletion of the miRNA target sites (miR-125a-5p, miR-143-3p, and miR-409-3p) on the 3′-UTR of the PCSK7 reporter plasmid (FIGS. 28A-B). In this regard, three different mutated miR plasmids were constructed for both miR-125a-5p and miR-143-3p. Single-target sites of each miRNA were omitted individually in two separate plasmids, and the two putative binding sites of the miRNAs were deleted in the other plasmid.

miR-125a-5p: miRNA targeting PCSK7 3′-UTR and exons 14 and 15, overexpressed from pEGFP-C1 precursor vector (UCCCUGAGACCCUUUAACCUGUGA; miRNA expressed from a pEGFP-C1 precursor vector, further chemistry not given here)
ability of PC7 to shed hTfR1 into the media (PC7): led to a decline
expression level of the hTfR1 protein (hTfR1): exerted no effect
relative luciferase activity ([1]; Mut-a, deletion of the first target site): still decreased
relative luciferase activity ([1]; Mut-a,b, deletion of both miRNA target sites): failed to significantly decrease
relative luciferase activity ([1]; Mut-b, deletion of the second target site): still decreased
